Holding throughout (experiment): KINOMEscan
Type in all cases: binding
Common to all, as to conditions: read-out: % control activity remaining

One test concerns the target T1, LRRK2 (Homo sapiens, UniProt Q5S007).
T1 construct: purchased Eurofins DiscoverX KINOMEscan

Another test deals with T2, CIT (Homo sapiens, UniProt O14578).
T2 construct: purchased Eurofins DiscoverX KINOMEscan

In another test the target is T3, TAOK2 (Homo sapiens, UniProt Q9UL54).
T3 construct: purchased Eurofins DiscoverX KINOMEscan
T3 sequence (Q9UL54 1-1235): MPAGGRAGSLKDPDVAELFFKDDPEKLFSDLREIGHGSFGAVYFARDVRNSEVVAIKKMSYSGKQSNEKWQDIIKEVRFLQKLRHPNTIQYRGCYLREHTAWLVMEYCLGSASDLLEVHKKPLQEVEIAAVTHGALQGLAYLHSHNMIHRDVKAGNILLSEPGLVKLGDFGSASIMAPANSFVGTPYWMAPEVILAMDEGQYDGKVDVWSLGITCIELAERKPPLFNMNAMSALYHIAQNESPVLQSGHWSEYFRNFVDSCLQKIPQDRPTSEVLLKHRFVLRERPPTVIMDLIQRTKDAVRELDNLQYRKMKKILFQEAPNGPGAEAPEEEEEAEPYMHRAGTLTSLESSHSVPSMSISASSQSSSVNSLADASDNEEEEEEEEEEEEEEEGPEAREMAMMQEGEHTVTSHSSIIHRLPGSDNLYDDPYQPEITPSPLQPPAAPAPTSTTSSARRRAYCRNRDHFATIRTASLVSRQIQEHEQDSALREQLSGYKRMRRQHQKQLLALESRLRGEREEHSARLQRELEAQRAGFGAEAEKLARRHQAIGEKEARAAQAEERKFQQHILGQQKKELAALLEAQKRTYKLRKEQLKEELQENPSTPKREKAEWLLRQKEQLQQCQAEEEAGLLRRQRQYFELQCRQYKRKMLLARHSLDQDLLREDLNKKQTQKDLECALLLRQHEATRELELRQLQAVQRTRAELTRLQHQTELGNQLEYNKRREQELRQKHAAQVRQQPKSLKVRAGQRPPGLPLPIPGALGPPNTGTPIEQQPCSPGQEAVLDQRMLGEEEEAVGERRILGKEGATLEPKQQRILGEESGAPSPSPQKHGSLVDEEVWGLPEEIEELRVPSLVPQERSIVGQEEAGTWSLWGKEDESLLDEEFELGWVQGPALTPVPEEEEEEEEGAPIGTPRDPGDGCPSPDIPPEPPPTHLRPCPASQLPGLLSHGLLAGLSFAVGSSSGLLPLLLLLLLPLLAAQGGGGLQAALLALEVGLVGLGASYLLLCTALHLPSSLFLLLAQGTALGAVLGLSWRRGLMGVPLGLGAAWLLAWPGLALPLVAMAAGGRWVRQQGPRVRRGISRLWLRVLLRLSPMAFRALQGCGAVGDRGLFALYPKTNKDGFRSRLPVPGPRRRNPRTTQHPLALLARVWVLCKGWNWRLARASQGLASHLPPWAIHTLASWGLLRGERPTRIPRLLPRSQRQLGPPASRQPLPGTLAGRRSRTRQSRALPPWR

A further test has as its target T4, ERK4 (Homo sapiens, UniProt P31152).
T4 construct: purchased Eurofins DiscoverX KINOMEscan

For another test, the target named is T5, NIK (Homo sapiens, UniProt Q99558).
T5 construct: purchased Eurofins DiscoverX KINOMEscan

In a further test the target is T6, MEK5 (Homo sapiens, UniProt Q13163).
T6 construct: purchased Eurofins DiscoverX KINOMEscan
T6 sequence (Q13163 1-448): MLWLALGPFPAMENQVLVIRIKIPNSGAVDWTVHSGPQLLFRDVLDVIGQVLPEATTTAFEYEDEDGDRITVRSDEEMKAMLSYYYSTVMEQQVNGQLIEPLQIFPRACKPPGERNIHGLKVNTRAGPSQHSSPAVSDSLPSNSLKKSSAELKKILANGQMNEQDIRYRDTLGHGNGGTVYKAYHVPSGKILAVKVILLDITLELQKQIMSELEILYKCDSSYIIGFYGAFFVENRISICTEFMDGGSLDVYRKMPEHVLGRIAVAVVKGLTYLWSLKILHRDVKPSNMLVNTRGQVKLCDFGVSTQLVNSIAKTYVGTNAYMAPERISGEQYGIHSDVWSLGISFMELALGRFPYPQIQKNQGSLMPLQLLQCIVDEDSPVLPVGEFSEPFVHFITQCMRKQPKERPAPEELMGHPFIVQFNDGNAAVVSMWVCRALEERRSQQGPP

A further test has as its target T7, CDK9 (Homo sapiens, UniProt P50750).
T7 construct: purchased Eurofins DiscoverX KINOMEscan

A further test deals with T8, PIK3CD (Homo sapiens, UniProt O00329).
T8 construct: purchased Eurofins DiscoverX KINOMEscan
T8 sequence (O00329 1-1044): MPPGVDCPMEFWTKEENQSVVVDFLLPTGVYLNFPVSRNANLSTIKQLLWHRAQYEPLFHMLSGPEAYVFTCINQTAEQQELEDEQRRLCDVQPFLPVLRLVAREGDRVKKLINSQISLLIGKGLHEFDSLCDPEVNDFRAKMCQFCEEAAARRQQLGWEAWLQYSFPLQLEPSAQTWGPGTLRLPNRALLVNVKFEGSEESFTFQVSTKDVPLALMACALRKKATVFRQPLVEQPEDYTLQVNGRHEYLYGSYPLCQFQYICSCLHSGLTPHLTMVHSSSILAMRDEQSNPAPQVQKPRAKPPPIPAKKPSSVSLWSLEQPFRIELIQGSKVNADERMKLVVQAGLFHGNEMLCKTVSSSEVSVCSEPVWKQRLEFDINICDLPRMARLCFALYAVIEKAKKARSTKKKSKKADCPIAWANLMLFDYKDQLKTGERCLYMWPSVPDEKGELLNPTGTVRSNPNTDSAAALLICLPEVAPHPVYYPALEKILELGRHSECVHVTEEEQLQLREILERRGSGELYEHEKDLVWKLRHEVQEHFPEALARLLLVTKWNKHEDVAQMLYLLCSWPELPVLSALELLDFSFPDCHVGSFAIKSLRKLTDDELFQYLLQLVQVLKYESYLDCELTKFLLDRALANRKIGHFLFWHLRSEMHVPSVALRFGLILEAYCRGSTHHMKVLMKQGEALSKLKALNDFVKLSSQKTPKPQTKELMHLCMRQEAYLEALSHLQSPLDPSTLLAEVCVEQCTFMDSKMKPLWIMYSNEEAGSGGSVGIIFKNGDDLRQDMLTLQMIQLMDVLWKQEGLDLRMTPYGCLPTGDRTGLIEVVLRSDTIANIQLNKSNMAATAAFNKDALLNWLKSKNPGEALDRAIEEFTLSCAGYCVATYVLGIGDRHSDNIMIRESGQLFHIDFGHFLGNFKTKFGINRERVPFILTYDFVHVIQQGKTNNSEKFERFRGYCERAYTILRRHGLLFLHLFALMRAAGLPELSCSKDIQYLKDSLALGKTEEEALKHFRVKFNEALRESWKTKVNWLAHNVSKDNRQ

Each structure is given as a SMILES string.

T1 sequence (Q5S007 whole entry): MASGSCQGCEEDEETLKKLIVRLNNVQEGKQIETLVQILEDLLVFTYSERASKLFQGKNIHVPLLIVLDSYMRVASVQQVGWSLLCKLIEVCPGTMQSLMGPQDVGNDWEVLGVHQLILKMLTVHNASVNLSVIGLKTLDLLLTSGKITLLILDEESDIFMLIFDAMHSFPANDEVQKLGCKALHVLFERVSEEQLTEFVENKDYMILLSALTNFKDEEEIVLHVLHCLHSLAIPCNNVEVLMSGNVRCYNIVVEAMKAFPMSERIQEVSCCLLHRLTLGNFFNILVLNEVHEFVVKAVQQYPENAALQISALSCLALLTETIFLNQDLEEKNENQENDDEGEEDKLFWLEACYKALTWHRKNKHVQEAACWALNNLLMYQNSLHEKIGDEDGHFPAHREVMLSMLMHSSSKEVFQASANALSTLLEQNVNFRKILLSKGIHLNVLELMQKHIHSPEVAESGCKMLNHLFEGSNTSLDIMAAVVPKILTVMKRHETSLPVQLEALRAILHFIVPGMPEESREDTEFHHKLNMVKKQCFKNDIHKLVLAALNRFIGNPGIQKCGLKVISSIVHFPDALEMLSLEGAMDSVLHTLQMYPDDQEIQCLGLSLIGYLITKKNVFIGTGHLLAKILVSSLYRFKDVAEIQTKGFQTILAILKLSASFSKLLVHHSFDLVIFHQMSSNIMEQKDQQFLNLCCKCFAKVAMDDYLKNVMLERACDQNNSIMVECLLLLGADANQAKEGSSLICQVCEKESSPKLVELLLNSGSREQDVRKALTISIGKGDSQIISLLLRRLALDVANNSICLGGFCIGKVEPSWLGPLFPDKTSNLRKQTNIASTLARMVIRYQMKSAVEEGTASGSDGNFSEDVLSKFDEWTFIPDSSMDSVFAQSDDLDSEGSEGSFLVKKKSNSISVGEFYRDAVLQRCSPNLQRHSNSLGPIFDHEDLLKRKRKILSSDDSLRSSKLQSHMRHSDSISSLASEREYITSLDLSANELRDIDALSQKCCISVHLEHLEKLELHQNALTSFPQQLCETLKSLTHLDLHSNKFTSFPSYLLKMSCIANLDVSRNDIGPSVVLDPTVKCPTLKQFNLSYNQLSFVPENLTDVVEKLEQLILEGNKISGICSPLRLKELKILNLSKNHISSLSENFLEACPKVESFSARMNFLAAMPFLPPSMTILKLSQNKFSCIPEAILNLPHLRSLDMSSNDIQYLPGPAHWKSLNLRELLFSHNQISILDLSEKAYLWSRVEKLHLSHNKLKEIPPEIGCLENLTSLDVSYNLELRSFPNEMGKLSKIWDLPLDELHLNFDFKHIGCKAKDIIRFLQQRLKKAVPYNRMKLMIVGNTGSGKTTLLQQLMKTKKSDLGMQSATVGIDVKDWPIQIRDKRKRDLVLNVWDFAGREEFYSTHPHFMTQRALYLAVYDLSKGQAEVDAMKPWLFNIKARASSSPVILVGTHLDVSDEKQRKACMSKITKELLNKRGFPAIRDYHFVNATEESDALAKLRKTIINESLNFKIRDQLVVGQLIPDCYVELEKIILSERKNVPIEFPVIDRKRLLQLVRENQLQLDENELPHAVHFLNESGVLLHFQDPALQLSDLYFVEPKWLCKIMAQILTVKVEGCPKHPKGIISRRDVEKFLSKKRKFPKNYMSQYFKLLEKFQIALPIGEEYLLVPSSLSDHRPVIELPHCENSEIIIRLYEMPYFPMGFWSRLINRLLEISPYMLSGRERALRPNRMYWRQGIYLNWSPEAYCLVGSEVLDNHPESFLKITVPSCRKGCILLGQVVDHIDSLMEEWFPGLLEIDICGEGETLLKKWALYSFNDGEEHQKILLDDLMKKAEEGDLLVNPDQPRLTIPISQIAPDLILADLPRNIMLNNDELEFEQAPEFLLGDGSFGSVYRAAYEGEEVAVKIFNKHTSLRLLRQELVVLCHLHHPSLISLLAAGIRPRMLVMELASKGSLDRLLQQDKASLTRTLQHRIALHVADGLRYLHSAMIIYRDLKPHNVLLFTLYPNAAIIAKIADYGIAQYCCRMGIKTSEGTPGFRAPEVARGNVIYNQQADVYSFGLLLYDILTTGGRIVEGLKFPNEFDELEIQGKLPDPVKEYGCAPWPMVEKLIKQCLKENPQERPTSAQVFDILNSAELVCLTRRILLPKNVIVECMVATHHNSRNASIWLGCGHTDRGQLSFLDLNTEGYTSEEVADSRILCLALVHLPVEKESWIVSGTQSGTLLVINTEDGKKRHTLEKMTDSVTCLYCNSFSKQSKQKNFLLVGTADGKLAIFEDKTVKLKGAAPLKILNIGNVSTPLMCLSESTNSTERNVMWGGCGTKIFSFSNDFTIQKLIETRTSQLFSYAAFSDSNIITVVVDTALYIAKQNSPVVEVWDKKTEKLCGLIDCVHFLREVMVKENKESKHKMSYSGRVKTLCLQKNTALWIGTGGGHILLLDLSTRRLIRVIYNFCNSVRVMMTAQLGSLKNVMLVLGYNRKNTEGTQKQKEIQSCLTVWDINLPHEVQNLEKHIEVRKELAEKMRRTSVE
T2 sequence (O14578 whole entry): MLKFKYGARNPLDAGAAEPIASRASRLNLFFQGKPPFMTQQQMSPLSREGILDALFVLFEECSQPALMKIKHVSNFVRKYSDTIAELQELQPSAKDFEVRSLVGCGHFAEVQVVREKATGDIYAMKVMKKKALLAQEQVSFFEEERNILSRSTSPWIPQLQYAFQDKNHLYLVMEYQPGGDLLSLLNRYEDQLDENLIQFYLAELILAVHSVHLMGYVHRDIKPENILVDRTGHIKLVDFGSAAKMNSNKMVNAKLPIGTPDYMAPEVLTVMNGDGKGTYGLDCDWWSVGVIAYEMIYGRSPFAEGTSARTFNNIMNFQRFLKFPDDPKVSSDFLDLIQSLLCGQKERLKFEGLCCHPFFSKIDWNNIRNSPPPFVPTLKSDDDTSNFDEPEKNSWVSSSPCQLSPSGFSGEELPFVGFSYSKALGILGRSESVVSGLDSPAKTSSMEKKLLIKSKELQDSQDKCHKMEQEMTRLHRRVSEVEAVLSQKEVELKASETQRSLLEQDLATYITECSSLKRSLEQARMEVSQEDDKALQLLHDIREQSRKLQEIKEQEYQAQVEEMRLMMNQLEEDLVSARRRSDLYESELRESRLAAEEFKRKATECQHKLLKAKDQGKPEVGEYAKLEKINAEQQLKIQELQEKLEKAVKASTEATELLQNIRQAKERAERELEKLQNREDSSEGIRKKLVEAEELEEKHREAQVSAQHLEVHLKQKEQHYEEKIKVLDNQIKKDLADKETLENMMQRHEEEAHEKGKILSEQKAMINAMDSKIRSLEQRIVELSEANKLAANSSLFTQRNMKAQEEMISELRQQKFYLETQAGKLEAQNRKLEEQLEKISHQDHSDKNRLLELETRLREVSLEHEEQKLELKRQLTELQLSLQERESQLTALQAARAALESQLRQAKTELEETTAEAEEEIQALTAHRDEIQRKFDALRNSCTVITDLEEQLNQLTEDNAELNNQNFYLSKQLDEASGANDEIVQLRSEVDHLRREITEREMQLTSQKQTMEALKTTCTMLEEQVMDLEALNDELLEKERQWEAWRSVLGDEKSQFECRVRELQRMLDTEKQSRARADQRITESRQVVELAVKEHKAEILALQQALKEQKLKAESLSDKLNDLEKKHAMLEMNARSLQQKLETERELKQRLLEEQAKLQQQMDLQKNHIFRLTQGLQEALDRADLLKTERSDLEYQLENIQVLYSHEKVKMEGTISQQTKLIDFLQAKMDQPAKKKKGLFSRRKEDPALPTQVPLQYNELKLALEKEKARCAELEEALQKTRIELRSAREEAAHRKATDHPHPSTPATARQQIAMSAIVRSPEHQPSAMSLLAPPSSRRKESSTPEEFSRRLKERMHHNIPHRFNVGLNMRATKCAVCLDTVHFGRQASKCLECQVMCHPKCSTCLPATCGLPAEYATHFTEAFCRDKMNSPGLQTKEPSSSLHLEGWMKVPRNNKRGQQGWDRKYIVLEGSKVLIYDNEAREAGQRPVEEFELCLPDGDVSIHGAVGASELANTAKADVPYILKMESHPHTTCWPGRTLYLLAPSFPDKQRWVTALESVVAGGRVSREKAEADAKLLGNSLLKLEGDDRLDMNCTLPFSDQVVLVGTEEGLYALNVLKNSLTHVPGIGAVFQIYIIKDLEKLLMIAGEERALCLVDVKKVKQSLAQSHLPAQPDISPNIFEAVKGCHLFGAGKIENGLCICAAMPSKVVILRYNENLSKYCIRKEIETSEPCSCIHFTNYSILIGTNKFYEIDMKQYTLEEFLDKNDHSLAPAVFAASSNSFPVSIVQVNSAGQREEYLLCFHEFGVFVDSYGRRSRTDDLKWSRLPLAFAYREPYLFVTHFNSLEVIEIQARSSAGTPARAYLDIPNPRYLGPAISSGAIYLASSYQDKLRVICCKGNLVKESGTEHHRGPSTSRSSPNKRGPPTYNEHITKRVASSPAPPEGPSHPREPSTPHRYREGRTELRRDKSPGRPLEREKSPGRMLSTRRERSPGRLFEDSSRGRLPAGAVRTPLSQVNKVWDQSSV
T7 sequence (P50750 whole entry): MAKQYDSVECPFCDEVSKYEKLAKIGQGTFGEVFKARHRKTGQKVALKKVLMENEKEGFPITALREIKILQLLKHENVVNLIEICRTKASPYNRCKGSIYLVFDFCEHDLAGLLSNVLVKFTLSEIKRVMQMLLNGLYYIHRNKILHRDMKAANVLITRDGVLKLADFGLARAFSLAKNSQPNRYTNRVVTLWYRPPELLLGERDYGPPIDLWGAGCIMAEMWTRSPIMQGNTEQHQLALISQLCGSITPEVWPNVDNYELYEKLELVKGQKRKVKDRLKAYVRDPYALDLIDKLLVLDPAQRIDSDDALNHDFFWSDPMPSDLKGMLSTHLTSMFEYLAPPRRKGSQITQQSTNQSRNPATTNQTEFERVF

As to `Clc1cc(NCC2CC2)c2ncc(-c3ccc4[nH]ncc4c3)n2n1` [compound 2, 6-Chloro-N-(cyclopropylmethyl)-3-(1H-indazol-5-yl)imidazo[1,2-b]pyridazin-8-amine], the remaining binding at 1 µM at LRRK2 amounted to 94%; at CIT it was 73%; on TAOK2 it was 87%; on ERK4, 100%; on NIK, 90%; at MEK5, 85%. The figures for the remaining binding at 1 µM at CDK9 and on PIK3CD were 98% and 92%, respectively.

Consider `O=C(CN1CCOCC1)N[C@H]1CC[C@H](Nc2cc(Cl)nn3c(-c4ccc5[nH]ncc5c4)cnc23)CC1` [compound 26], for which the remaining binding at 1 µM on LRRK2 stood at 90%; at CIT, 74%; at TAOK2, 100%; on ERK4 it was 99%; at NIK it was 78%; on MEK5 it was 95%. In addition, the remaining binding at 1 µM at CDK9 came to 43%; at PIK3CD, 90%.

For `CN1CCC(CNc2cc(Cl)nn3c(-c4cc5nc(Nc6ccccc6)[nH]c5cc4F)cnc23)CC1` [compound 31, 6-Chloro-3-(6-fluoro-2-(phenylamino)-1H-benzo[d]imidazol-5-yl)-N-((1-methylpiperidin-4-yl)methyl)imidazo[1,2-b]pyridazin-8-amine], the remaining binding at 1 µM on LRRK2 turned out to be 100%; on CIT it was 85%; on TAOK2, 98%; on ERK4 it was 93%; at NIK it was 92%; at MEK5 it was 71%. Besides, the remaining binding at 1 µM on CDK9 was 95%; on PIK3CD, 75%.
